Entries after “also recorded” stand apart in the source; their conditions may differ.
Assays:
[1] = system: transgenic medaka fish larvae (omChgH promoter-EGFP); test: Binary exposure with E2: change of the liver GFP signal induced by 17β-estradiol in transgenic medaka larvae (agonism / anti-estrogen activity); type: in vivo, Oryzias melastigma; details: for effect on estrogenic activity / liver GFP signal induced by 17β-estradiol: binary exposure with E2
Description: Another method of the present invention relates to a method of screening for a compound having anti-estrogenic activity.
(§1) In response to different concentrations of estrogen or estrogen-like chemical substances, transgenic fish expresses varying quantity of EGFP protein which is presented as varying GFP signal intensity under fluorescence microscope. […] To quantify the estrogen-like activity of test solution, fluorescent image of fish liver is recorded using a camera connected with the fluorescence microscope. Liver GFP signal intensity can then be measured using some image analysis software such as Metamorph (Universal Imaging). To reduce the interference of fish autofluorescence, only fish liver area was selected for the analysis. The average signal intensity of the manually marked area calculated using the same software was regarded as GFP signal intensity. Fish liver photos recorded using the same image parameter setting can be compared directly using GFP signal intensity, those photos recorded using varying image parameter settings can also be compared as long as each group contain a common reference control.
6-acetyl-1,1,2,4,4,7-hexamethyltetraline (AHTN) is one of the most widely used polycyclic musk. This compound is used as a fragrance ingredient in cosmetics and household cleaning products. According to HERA Risk Assessment reports in 2004, AHTN is produced in an annual volume of 1000 to 5000 tons in one Netherland and UK plant, respectively. According to HERA Risk Assessments, AHTN is not toxic to humans basing on present daily consumption. However, the ubiquitous distribution, high accumulation in environment (A Peck et al. Environ Sci Technol. 40: 5629-5635 (2006)), and bioaccumulation in organisms including human beings (H Nakata et al. Environ Sci Technol. 41: 2216-2222 (2007); S Lignell et al. Environ Sci Technol. 42: 6743-6748 (2008)) raise the concern of scientists. AHTN is found to be estrogen antagonist (RHMM Schreurs et al. Environ Sci Technol. 38: 997-1002 (2004); RHMM Schreurs et al. Toxicol Sci. 83: 264-272 (2005)). The estrogen antagonist activity of AHTN can also be very easily evaluated using transgenic medaka fish of present invention. Just expose transgenic medaka fish larvae to E2 (e.g. 0.04 μM) or E2 incombination with AHTN (e.g. 5 μM) for a period of time (e.g. 24 hours), and then measure the GFP signal intensity induced by E2 with/without the presence of AHTN.

[2] = system: transgenic brackish medaka larvae (omChgH promoter-EGFP); test: Estrogen-like activity: induced liver GFP signal in omChgH promoter-EGFP transgenic brackish medaka fish exposed to test solution; type: in vivo, Oryzias melastigma; details: for induction of GFP expression in the liver, compound alone: transgenic O. melastigma fish/larvae; for induction of liver GFP expression: transgenic brackish medaka larvae, at nM level; for GFP signal in the liver: phytoestrogens separately, high concentrations, 48 hours
Description: A generalized exposure regimen is established in the present art. FIG. 4 presents an example of using transgenic fish larvae to analyze the estrogen-like activity of a test solution. Exposure of transgenic brackish medaka fish (preferably yolk-sac larvae fish) to test solution (containing estrogen or estrogenic substances) is performed at 28° C. The exposure usually takes 24-48 hours. After exposure, the fish will be deposited on the inner side of a petri-dish cover with a small drop of test solution left. The induced EGFP expression in the fish liver will be observed under fluorescence microscope. Yolk-sac larvae are small, exposure can be carried out in utensils like 96-well plate, 24-well plate, petri-dish and so on to save test reagents. Additionally, newly hatched larvae are the most transparent stage, and the transparence can keep up to 15 days after hatch. After 15 days, the larvae will be gradually less transparent due to the development of muscle. The transgenic fish larvae of 1 to 15 days after hatch have similar estrogen sensitivity (FIG. 5).
as §1
Estrone (E1), 17β-estradiol (E2) and estriol (E3) are natural steroid estrogens. […] Of them, E2 has been intensively studied, and is commonly used as a standard estrogen to evaluate the estrogen-like activity of testing reagents. Using transgenic larvae of present invention, induced GFP signal by E2 can usually be observed within 24 hours, and the GFP signal increases with the increasing concentration of E2. At higher E2 concentrations (e.g., 102 or 1020 nM), induced GFP signal intensity can even be observed within 4 hours after onset of exposure, and the signal increases with exposure time (FIG. 8), and reaches saturation within 24 hours. At low E2 concentrations, however, it will take longer for the induced GFP signal to accumulate to become detectable. Thus, by exposing transgenic brackish medaka fish larvae to different concentrations of E2 for a period of time (such as 24 hours), imaging the GFP expressing liver, and then measuring the induced liver GFP signal intensity using image analysis software, a standard curve correlating GFP signal intensity and E2 concentration can be established (GFP-E2 standard curve; FIG. 9). Using the same regimen, and also include one known E2 concentration exposure as reference, the estrogen-like activity of test reagents can then be evaluated as estrogen potency equivalent by referring the induced liver GFP signal to that of GFP-E2 standard curve.

Structure (SMILES)	effect on estrogenic activity / liver GFP signal induced by 17β-estradiol [1]	induction of GFP expression in the liver, compound alone [2]	GFP signal in the liver [2]	further results
CC(=O)c1cc2c(cc1C)C(C)(C)C(C)CC2(C)C (stereo not drawn) [AHTN, 6-acetyl-1,1,2,4,4,7-hexamethyltetraline]	decreased	–	–	GFP signal induced by E2 in the presence of AHTN ([1]; E2 0.04 μM, AHTN 5 μM, 24 hours): weaker GFP signal
COc1ccc(C(=O)CC(=O)c2ccc(C(C)(C)C)cc2)cc1 [BMDM, 4-tert-Butyl-4′-methoxydibenzoylmethane]	estrogen agonism	cannot induce the GFP expression	–	–
CC(C)(c1ccc(O)cc1)c1ccc(O)cc1 [BPA, bisphenol A]	–	can also induce GFP expression	–	–
C[C@]12CC[C@@H]3c4ccc(O)cc4CC[C@H]3[C@@H]1CC[C@@H]2O [E2, 17β-estradiol, reference compound]	–	–	–	time until induced GFP signal can be observed, higher E2 concentrations ([2]; 102 or 1020 nM, after onset of exposure): ≤ 4 h; induced expression of transgene GFP in the liver ([2]; embryo, larva and male fish): can also be induced; time until GFP signal reaches saturation ([2]; higher E2 concentrations (102 or 1020 nM)): ≤ 24 h; induction of liver GFP expression [2]: can induce liver GFP expression; time until induced GFP signal can be observed ([2]; transgenic larvae, E2 exposure): ≤ 24 h
C[C@]12CC[C@@H]3c4ccc(O)cc4CC[C@H]3[C@@H]1C[C@@H](O)[C@@H]2O [E3, estriol, reference compound]	–	–	–	induction of liver GFP expression [2]: can induce liver GFP expression
CC1CC(OC(=O)c2ccccc2O)CC(C)(C)C1 (stereo not drawn) [HMS, homosalate]	can enhance the estrogenic activity of 17β-estradiol in a dose-dependent manner; also recorded: increased	cannot induce the GFP expression	–	–
CCCCCCCCCc1ccc(O)cc1 [NP, 4-nonyphenol]	–	can also induce GFP expression	–	–
CCCCC(CC)COC(=O)c1ccc(N(C)C)cc1 (stereo not drawn) [OD-PABA, octyl dimethyl PABA]	estrogen agonism	cannot induce the GFP expression	–	–
O=c1c(-c2ccc(O)cc2)coc2cc(O)ccc12 [daidzein]	–	–	weak GFP signal	–
O=c1c(-c2ccc(O)cc2)coc2cc(O[C@@H]3O[C@H](CO)[C@@H](O)[C@H](O)[C@H]3O)ccc12 [daidzin]	–	–	weak GFP signal	–
C#C[C@]1(O)CC[C@H]2[C@@H]3CCc4cc(OC)ccc4[C@H]3CC[C@@]21C [ethinylestradiol 3-methyl ether, reference compound]	–	–	–	induced liver GFP signal compared with E2 ([2]; same concentration (nM), same period (24 hours)): stronger than that induced by E2
O=c1c(-c2ccc(O)cc2)coc2cc(O)cc(O)c12 [genistein]	–	–	weak GFP signal	–
O=c1c(-c2ccc(O)cc2)coc2cc(O[C@@H]3O[C@H](CO)[C@@H](O)[C@H](O)[C@H]3O)cc(O)c12 [genistin]	–	–	weak GFP signal	–

Reference: patent US9043995B2, “Transgenic fish and uses thereof” (CITY UNIVERSITY OF HONG KONG, priority 2010, dated 2015)
